# Reference: US11149277B2, “Method of producing enriched exosomes” (National Health Research Institutes, priority 2016, dated 2021)
# What was measured:
# NAMECs = experiment: Western blot of exosome markers and proteins in CM-P4 fractions of NAMECs; format: cell-based, human
# Source text: FIG. 2 includes graphs and blots showing analyses of GW-treated NAMEC P4 fractions. CM-P4 GW-treated NAMECs were collected and subjected to (A) NanoSight Nanoparticle Tracking Analysis (NTA) and (B) Dynamic Light Scattering/Zeta Potential Analysis (DLS). […] D: particle diameter. RN: relative number. (C) is a blot showing the amounts of the CD44 stem cell marker and the CD81, CD9, TSG101, Alix, HSP70 and GAPDH exosome markers measured in the indicated CM-P4 fractions and cell lysates. The culture media and cell lysates were collected from the same number of NAMECs treated with vehicle (Crl), GW627368X (GW) or PGE2 (1 μM) for 4 days. (D) is a blot showing the amounts of the GAPDH and CD81 exosome markers and the CD44 stem cell marker measured in the CM-P4 fraction of NAMECs (CD44hi/CD24− stem cells) or CD44lo/CD24+ non-stem cells (HMLE cells) treated with vehicle (Crl) or GW for 2 days. 1×: P4 exosome fraction released by 1×10^6 cells; 2×: P4 exosome fraction released by 2×10^6 cells. […] (E) is a blot showing that the CD44 stem cell marker and GAPDH and CD81 exosome markers were measured in the indicated P4 conditioned medium fractions of NAMECs treated with vehicle (Crl), GW627368X (GW, 1 μg/ml), AH23848 (EP4 antagonist; 0.4, 2, 4 μg/ml), or AH6809 (EP1/2/3 antagonist; 0.8, 4, 8 μg/ml). (F) is a blot showing the HSP70, GAPDH and CD81 exosome markers measured in the indicated CM-P4 of NAMECs, NAMEC-shEP4-1 cells, and NAMEC-shEP4-2 cells treated with vehicle or with doxycycline (Dox, 2 μg/ml) (top panel). Doxyclycline (Dox) induced the production EP4 shRNA in NAMEC-shEP4 cells (bottom panel).
# The P4 exosome fractions and cell lysates were collected from NAMECs treated with vehicle (Crl), GW627368X (GW), or PGE2 for 4 days. 1×: P4 exosome fraction released by 2.5×10^5 cells; 5×: P4 exosome fraction released by 12.5×10^5 cells. Hg: Hg-integrin β1, Lg: Lg-integrin β1, H: H-integrin α6, L: L-integrin α6, pg: pg-LRP6, g: g-LRP6, Ng: Ng-LRP6.
# The isolated human mammary epithelial stem cells (NAMECs) were cultured in mammary epithelial cell basal medium (250 ml MCDB-170, 250 ml DMEM-F12, 1.2 g sodium bicarbonate, 2.5 μg EGF, 0.25 mg Hydrocortisone, 2.5 mg insulin, 35 mg BPE) with or without containing EP4 antagonist, i.e., GW627368X (GW) at 1 μg/ml, or AH23848 (AH) at 4 μg/ml, for 4 days. The culture medium was supplied with 0.5 μg/ml of GW or 2 μg/ml of AH23848 at the third day of the culturing period. For the induction of EP4 antagonist-induced exosomes from mouse mammary epithelial cells, cells were cultured in a medium containing 10 μg/ml of GW for 4 days.
# The culture media were centrifuged at 300 g for 5 min to remove cells (P1), at 2,000 g for 20 min (P2), then at 10,000 g for 30 min (P3) all at 4° C. Dead cells and cell debris were removed at 300 g (P1) and 1200 g (P2). […]
# [1] = system: mesenchymal stem cells (MSCs); experiment: EV/exosome release from mesenchymal stem cells; format: cell-based; conditions: GW for 8 days
# Source text: FIG. 10 includes blots and a graph. (A) is a graph showing vesicle number analysis of GW-treated mesenchymal stem cells (MSCs) P4 fractions. The CM-P4 GW-treated MSCs were collected and subjected to NanoSight Nanoparticle Tracking Analysis (NTA). Quantification of EV/exosome release is shown as the ratio of [vesicle number]/[cell number]. Data are means±SEM (n=3). ***P≤0.001. (B) is a set of blots showing the protein contents measured in the EV/exosome fraction released by MSCs treated with vehicle DMSO (MSC) or EP4 antagonists (MSCGW). The culture media (D1-4: conditioned medium from day 1 to day 4; D5-8: conditioned medium from day 5 to day 8) were collected from MSCs treated with vehicle (MSC), or GW (MSCGW) for 8 days. (C) is a set of blots showing the protein contents measured in the EV/exosome fraction released by neural stem cells (NSCs) treated with vehicle DMSO or EP4 antagonists. […]
# (A) Vesicle number of GW-treated MSC P4 fractions was analyzed. […] (B) Proteins were measured in the EV/exosome fraction released by MSCs treated with vehicle DMSO, EP4 antagonists (GW), or EP4 agonist PGE2. […] (C) Cytokines were measured in the EV/exosome fraction released by MSCs treated with DMSO (MSC) or EP4 antagonist (MSCGW). […] EV/exosome cytokines released by the same number of MSCs were measured using cytokine arrays (C) and Bio-plex (D; IL-10). […]
compound,measurement,setting,value
CCOc1c2c(c(OCC)c3ccccc13)C(=O)N(c1ccc(CC(=O)NS(=O)(=O)c3ccccc3)cc1)C2 [GW627368X],amount of total exosomal proteins released vs vehicle or PGE2,NAMECs; 4 days treatment,much greater
same,exosome release by exosome markers in CM-P4 fractions,"NAMECs; AH23848 0.4, 2, 4 μg/ml, AH6809 0.8, 4, 8 μg/ml, GW 1 μg/ml",Large amounts
same,release of EVs/exosomes from MSCs,[1],increased the release of EVs/exosomes
